18 compounds from US7803788B2, “Prodrugs of phosphonate nucoleotide analogues” (Gilead Sciences, Inc., priority 2000, dated 2010) can be followed below.

For data set [1], the system named is HIV-1. The data set can be described thus: In vitro anti-HIV-1 activity in MT-2 cells. Format: cell-based.
The subject of data set [2] is MT-2 cells. Briefly: Cytotoxicity in MT-2 cells. To be noted: Table 4.
Data set [3] is described as follows: Excretion and tissue distribution of radiolabelled GS-7340 in dogs. The settings on record: for % Dose / Conc.: dogs, oral 10 mg-eq. PMPA/kg. As for the experimental part: Plasma and peripheral blood mononuclear cells (PBMCs) were obtained over the 24-hr period. Urine and feces were cage collected over 24 hr. At 24 h after the dose, the animals were sacrificed and tissues removed for analysis. Total radioactivity in tissues was determined by oxidation and liquid scintillation counting.

Data set [4] is described as follows: Stability in human plasma. The format is in vitro ADME. To be noted: 37° C., TBS pH 7.5. The protocol: (§1) The in vitro metabolism and stability of separated diastereomers were determined in PLCE, MT-2 extract and human plasma. A biological sample listed below, 80 μL, was transferred into a screw-capped centrifuge tube and incubated at 37° C. for 5 min. A solution containing 0.2 mg/mL of the test compound in a suitable buffer, 20 μL, was added to the biological sample and mixed. The reaction mixture, 20 μL, was immediately sampled and mixed with 60 μL of methanol containing 0.015 mg/mL of 2-hydroxymethylnaphthalene as an internal standard for HPLC analysis. The sample was taken as the time-zero sample. Then, at specific time points, the reaction mixture, 20 μL, was sampled and mixed with 60 μl of methanol containing the internal standard. The mixture thus obtained was centrifuged at 15,000 G for 5 min and the supernatant was analyzed with HPLC under the conditions described below.
(§2) The biological samples evaluated are as follows, • (1) PLCE (porcine liver carboxyesterase from Sigma, 160 u/mg protein, 21 mg protein/mL) diluted 20 fold with PBS (phosphated-buffered saline). • (2) MT-2 cell extract was prepared from MT-2 cells according to the published procedure [A. Pompon, I. Lefebvre, J.-L. Imbach, S. Kahn, and D. Farquhar, “Antiviral Chemistry & Chemotherapy”, 5:91-98 (1994)] except for using HEPES buffer described below as the medium. • (3) Human plasma (pooled normal human plasma from George King Biomedical Systems, Inc.)
In the study for human plasma, the test compound was dissolved in TBS. TBS (tris-buffered saline, Sigma) contains 0.05 M Tris, 0.0027 M potassium chloride, and 0.138 M sodium chloride. pH 7.5 at 37° C.
(§3) The HPLC analysis was carried out under the following conditions.

Data set [5] is described as follows: Stability / hydrolysis in MT-2 cell extract. The format is in vitro ADME. To be noted: 37° C., HEPES buffer pH 7.4. As for the experimental part: as §1, §2
In the study for MT-2 cell extracts, the test compound was dissolved in HEPES buffer. HEPES buffer contains 0.010 M HEPES, 0.05 M potassium chloride, 0.005 M magnesium chloride, and 0.005 M dl-dithiothreitol. pH 7.4 at 37° C.
as §3

The mark [6] stands for this setting: Table 4, activity of isomer A over isomer B.
[7] abbreviates: Table 5 (selected IC50 data from Table 4), read-out: HIV IC50.

Like-named read-outs stand apart in the source and are kept apart here.

As a reminder, the CC50 is the concentration giving 50% cytotoxicity. High values mean lower toxicity to the cells, low ones greater toxicity to the cells. The compound `CCOC(=O)C(C)NP(=O)(COC(C)Cn1cnc2c(N)ncnc21)Oc1ccccc1` (mixture of isomers) [Ala-ethyl, Phenyl PMPA, Ethyl L-Alanyl Amidate] returned a Fold change in data set [1] (Table 4, IC50 relative to PMPA) of 250x. Moreover, the A/B activity in data set [1] (setting [6]) is listed as 10x. In addition, the CC50 in data set [2] was 60 µM.
The like results for `COC(=O)C(C)NP(=O)(COC(C)Cn1cnc2c(N)ncnc21)Oc1ccccc1` (mixture of isomers) [Ala-methylester] were, in that order, 200x, 20x and 80 µM.
As usually defined, the IC50 is the point on the concentration scale where inhibition reaches its midpoint. On to `CCOC(=O)CNP(=O)(COC(C)Cn1cnc2c(N)ncnc21)Oc1ccccc1` (mixture of isomers) [Gly-ethylester], for which, in data set [1], the A/B activity came out at 20x and the Fold change was 10x. For the same compound, the IC50 in data set [1] (read-out: IC50) is 0.5 µM.
Take `COC(=O)C(C)NP(=O)(COC(C)Cn1cnc2c(N)ncnc21)Oc1ccccc1` (single isomer, unassigned) [GS-6957a]: the Fold change in data set [1] (Table 4, IC50 relative to PMPA) is 670x.
The same measure, in the same setting: the value for `COC(=O)C(C)NP(=O)(COC(C)Cn1cnc2c(N)ncnc21)Oc1ccccc1` (single isomer, unassigned) [GS-6957b] was 33x.
In data set [1], `COC(=O)C(Cc1ccccc1)NP(=O)(COC(C)Cn1cnc2c(N)ncnc21)Oc1ccccc1` (single isomer, unassigned) [GS-7003a] displayed a Fold change of 500x.
Compound `COC(=O)C(Cc1ccccc1)NP(=O)(COC(C)Cn1cnc2c(N)ncnc21)Oc1ccccc1` (single isomer, unassigned) [GS-7003b] had a Fold change in data set [1] of 50x.
Still for that read-out and setting: with `CCOC(=O)CNP(=O)(COC(C)Cn1cnc2c(N)ncnc21)Oc1ccccc1` (single isomer, unassigned) [GS-7335] the figure was 5x.
In the case of `CC(C)OC(=O)C(C)NP(=O)(COC(C)Cn1cnc2c(N)ncnc21)Oc1ccccc1` (single isomer, unassigned) [compound 4], the IC50 in data set [1] (setting [7]) was 0.06 µM.
In data set [1], `CCOC(=O)[C@H](CC)NP(=O)(CO[C@H](C)Cn1cnc2c(N)ncnc21)Oc1ccccc1` (stereo partly drawn) [ABA-ethyl] had an A/B activity of 7.5x and a Fold change of 625x. For the same compound, the CC50 in data set [2] is > 100 µM.
`CCOC(=O)CNP(=O)(CO[C@H](C)Cn1cnc2c(N)ncnc21)Oc1ccccc1` (stereo partly drawn) [GS-7119] came in with a Fold change in data set [1] of 100x. The CC50 in data set [2] is > 100 µM.
For `CC(C)OC(=O)[C@H](C)N[P@](=O)(CO[C@H](C)Cn1cnc2c(N)ncnc21)Oc1ccccc1` [GS-7339], the IC50 in data set [1] (Table 4, effect of diastereomer, read-out: IC50) was 0.06 µM. Moreover, the CC50 in data set [2] is > 100 µM.
As to `CCOC(=O)C(CC)NP(=O)(COC(C)Cn1cnc2c(N)ncnc21)Oc1ccccc1` (stereo not drawn) [GS-7342], the Fold change in data set [1] is 1,250x.
The compound `C[C@H](Cn1cnc2c(N)ncnc21)OCP(=O)(O)O` [PMPA, (R)-9-[2-(phosphonomethoxy)propyl]adenine, reference compound] came in with a Fold change in data set [1] of 1x.
In data set [1], `COC(=O)[C@H](Cc1ccccc1)NP(=O)(CO[C@H](C)Cn1cnc2c(N)ncnc21)Oc1ccccc1` (stereo partly drawn) [Phe-methylester] returned an A/B activity of 10x and a Fold change of 170x.
`CC(C)OC(=O)OCOP(=O)(CO[C@H](C)Cn1cnc2c(N)ncnc21)OCOC(=O)OC(C)C.O=C(O)/C=C/C(=O)O` [TDF, tenofovir disoproxil fumarate]: the “% Dose” value in data set [3] (Abdominal fat), in data set [3] (Adrenal Gland), in data set [3] (Axillary Lymph Nodes), in data set [3] (Bile), in data set [3] (Bone Marrow) and in data set [3] (Brain) was 0.00% in each case. Moreover, the “% Dose” value in data set [3] (Cerebrospinal Fluid) came to 0.00%; in data set [3] (Duodenum), 0.49%; in data set [3] (Eye (L + R)), 0.00%; in data set [3] (Femoral Bone), 0.00%; in data set [3] (Gall bladder) it was 0.00%; in data set [3] (Heart), 0.03%. The “% Dose” value in data set [3] (Ileum) was 0.01%; in data set [3] (Iliac Lymph Nodes), 0.00%; in data set [3] (Inguinal Lymph Nodes), 0.00%; in data set [3] (Lungs) it was 0.03%; in data set [3] (Mesenteric Lymph Nodes) it was 0.00%; in data set [3] (Pancreas), 0.00%. Moreover, the “% Dose” value in data set [3] (Pituitary Gland), in data set [3] (Prostate), in data set [3] (Salivary Gland (L + R)), in data set [3] (Skeletal Muscle), in data set [3] (Skin) and in data set [3] (Spinal Cord) was 0.00% each time. Moreover, the “% Dose” value is 0.00% in data set [3] (Spleen); 0.11% in data set [3] (Stomach); 0.02% in data set [3] (Testes (L + R)); 0.00% in data set [3] (Thyroid Gland); 0.00% in data set [3] (Whole Blood). The Conc. in data set [3] (Abdominal fat) is on record as 0.16 ug-eq/g; in data set [3] (Adrenal Gland), 1.90 ug-eq/g; in data set [3] (Axillary Lymph Nodes), 0.37 ug-eq/g; in data set [3] (Bone Marrow), 0.20 ug-eq/g; in data set [3] (Brain) it was “<LOD”; in data set [3] (Cerebrospinal Fluid), “<LOD”. Besides, the Conc. in data set [3] (Eye (L + R)) is recorded as 0.06 ug-eq/g; in data set [3] (Femoral Bone), 0.08 ug-eq/g; in data set [3] (Heart), 0.46 ug-eq/g; in data set [3] (Ileum) it was 0.50 ug-eq/g; in data set [3] (Iliac Lymph Nodes), 0.51 ug-eq/g; in data set [3] (Inguinal Lymph Nodes), 0.28 ug-eq/g. Moreover, the Conc. in data set [3] (Lungs) turned out to be 0.53 ug-eq/g; in data set [3] (Mesenteric Lymph Nodes), 1.20 ug-eq/g; in data set [3] (Pancreas) it was 0.57 ug-eq/g; in data set [3] (Pituitary Gland), 0.23 ug-eq/g; in data set [3] (Prostate), 0.23 ug-eq/g; in data set [3] (Salivary Gland (L + R)), 0.45 ug-eq/g. Also, the Conc. in data set [3] (Skeletal Muscle) is listed as 0.11 ug-eq/g; in data set [3] (Skin), 0.13 ug-eq/g; in data set [3] (Spinal Cord), “<LOD”; in data set [3] (Spleen), 0.63 ug-eq/g; in data set [3] (Thyroid Gland), 0.30 ug-eq/g; in data set [3] (Whole Blood) it was 0.85 ug-eq/g. For the same compound, in data set [3] (dog, in vivo), the “prodrug concentration in the plasma” value was “below the level of assay detection”.
Consider `CC(C)OC(=O)[C@H](C)N[P@](=O)(CO[C@H](C)Cn1cnc2c(N)ncnc21)Oc1ccccc1` [compound 3], for which, in data set [1] (setting [7]), the IC50 came to 0.005 µM. The “Human Plasma Stability (HP) t1/2” value in data set [4] came to 90.0 min. The “MT-2 extract hydrolysis product” value in data set [5] is reported as “Met. X & PMPA”.
Take `CC(C)OC(=O)OCOP(=O)(CO[C@H](C)Cn1cnc2c(N)ncnc21)OCOC(=O)OC(C)C` [compound 7]: the “Human Plasma Stability (HP) t1/2” value in data set [4] was determined as 0.41 min.
